Measured values from patent US8747873B2, “Compositions of dibromomalonamide and their use as biocides” (Dow Global Technologies LLC, priority 2012, dated 2014).
Like-named read-outs stand apart in the source and are kept apart here.

How the values were obtained:
[1] = tested on: mixture of Pseudomonas aeruginosa, Klebsiella pneumoniae, Staphylococcus aureus, and Bacillus subtilis; assay: Growth inhibition assay; assay type: cell-based; conditions: for % Inhibition of growth by CTAC: Table 3, single active
From the text: The growth inhibition assay used in the Examples measures inhibition of growth (or lack thereof) of a microbial consortium. Inhibition of growth can be the result of killing of the cells (so no growth occurs), killing of a significant portion of the populations of cells so that regrowth requires a prolonged time, or inhibition of growth without killing (stasis). Regardless of the mechanism of action, the impact of a biocide (or combination of biocides) can be measured over time on the basis of an increase in the size of the community.
The assay measures the efficacy of one or more biocides at preventing growth of a consortium of bacteria in a dilute mineral salts medium. The medium contains (in mg/l) the following components: FeCl3.6H2O (1); CaCl2.2H2O (10); MgSO4.7H2O (22.5); (NH4)2SO4 (40); KH2PO4 (10); K2HPO4 (25.5); Yeast Extract (10); and glucose (100). After all components are added to deionized water, the pH of the medium is adjusted to 7.5. Following filter sterilization, aliquots are dispensed in 100 ul quantities to sterile microtiter plate wells. Dilutions of DBMAL and/or “Biocide B” are then added to the microtiter plate. After preparing the combinations of actives as illustrated below, each well is inoculated with 100 μl of a cell suspension containing ca. 1×10^6 cells per milliliter of a mixture of Pseudomonas aeruginosa, Klebsiella pneumoniae, Staphylococcus aureus, and Bacillus subtilis. The final total volume of medium in each well is 300 μl. […] The resulting matrix allows testing of eight concentrations of each active and 64 combinations of actives in the ratios (of actives).
Controls (not shown) contain the medium with no biocide added. After preparing the combinations of actives as illustrated above, each well is inoculated with 100 μl of a cell suspension containing ca. 1×10^6 cells per milliliter of a mixture of Pseudomonas aeruginosa, Klebsiella pneumoniae, Staphylococcus aureus, and Bacillus subtilis. The final total volume of medium in each well is 300 μl.
Immediately after the microtiter plates are prepared, the optical density (OD) readings for each well is measured at 580 nm and the plates are then incubated at 37° C. for 24 hr. After the incubation period, the plates are gently agitated before OD580 values are collected. The OD580 values at T0 are subtracted from T24 values to determine the total amount of growth (or lack thereof) that occurs. These values are used to calculate the percent inhibition of growth caused by the presence of each biocide and each of the 64 combinations. A 90% inhibition of growth is used as a threshold for calculating synergy index (SI) values with the following equation: Synergy Index=MDBMAL/CDBMAL+MB/CB
where • CDBMAL: Concentration of DBMAL required to inhibit ˜90% of bacterial growth when used alone • CB: Concentration of biocide (B) required to inhibit ˜90% of bacterial growth when used alone. • MDBMAL: Concentration of DBMAL required to inhibit ˜90% of bacterial growth when used in combination with biocide (B). • MB: Concentration of biocide (B) required to inhibit ˜90% of bacterial growth when used in combination with DBMAL The SI values are interpreted as follows: • SI<1: Synergistic combination • SI=1: Additive combination • SI>1: Antagonistic combination

[2] = tested on: mixture of Pseudomonas aeruginosa ATCC 10145 and Staphylococcus aureus ATCC 6538; assay: Kill assay (MBC, synergy index); assay type: cell-based; conditions: 37° C., 2 hours
Protocol: This assay is used as a preliminary evaluation of synergy between the actives. The procedure is as follows. A mineral salts solution (0.2203 g of CaCl2, 0.1847 g of MgSO4, and 0.2033 g of NaHCO3 in 1 L water, approximately pH 8) is inoculated with equal amounts (about 10^7 CFU/ml) of a mixture of Pseudomonas aeruginosa ATCC 10145 and Staphylococcus aureus ATCC 6538. Aliquots of the cell suspension are then treated with 2,2-dibromomalonamide (“DBMAL”), […], and their combinations at various concentration levels. […] The MBC values are then used to calculate a synergy index (SI) values.
Summaries of the kill assay results are presented in the individual Examples. In each table, MBC values for each biocide and the blends tested are presented Likewise, the Synergy Index (“SI”) values for the combinations are listed. SI is calculated with the following equation: Synergy Index=Ca/CA+Mb/CB […]

Molecule: ClC=CC[N+]12CN3CN(CN(C3)C1)C2 [CTAC, 1-(3-chloroallyl)-3,5,7-triaza-1-azoniaadamantane chloride]
- inhibition at 1.95 µg/mL ([1]; 24 h, Table 6, CTAC alone 1.95 mg/l): 0%
- inhibition at 3.91 µg/mL ([1]; 24 h, Table 6, CTAC alone 3.91 mg/l): 0%
- inhibition at 7.81 µg/mL ([1]; 24 h, Table 6, CTAC alone 7.81 mg/l, read-out: % Inhibition of growth by CTAC): 9%
- inhibition at 15.625 µg/mL ([1]; 24 h, Table 6, CTAC alone 15.625 mg/l): 0%
- inhibition at 31.25 µg/mL ([1]; 24 h, Table 6, CTAC alone 31.25 mg/l, read-out: % Inhibition of growth by CTAC): 35%
- inhibition at 62.5 µg/mL ([1]; 24 h, Table 6, CTAC alone 62.5 mg/l, read-out: % Inhibition of growth by CTAC): 41%
- inhibition at 125 µg/mL ([1]; 24 h, Table 6, CTAC alone 125.0 mg/l, read-out: % Inhibition of growth by CTAC): 100%
- inhibition at 250 µg/mL ([1]; 24 h, Table 6, CTAC alone 250.0 mg/l, read-out: % Inhibition of growth by CTAC): 98%

Molecule: CC1(C)COCN1 [4,4-D, 4,4-Dimethyloxazolidine]
- inhibition at 7.81 µg/mL ([1]; 24 h, 4,4-D alone 7.81 mg/l, read-out: % Inhibition of growth by 4,4-D): 0%
- inhibition at 15.63 µg/mL ([1]; 24 h, 4,4-D alone 15.63 mg/l, read-out: % Inhibition of growth by 4,4-D): 2%
- inhibition at 31.25 µg/mL ([1]; 24 h, 4,4-D alone 31.25 mg/l, read-out: % Inhibition of growth by 4,4-D): 13%
- inhibition at 62.5 µg/mL ([1]; 24 h, 4,4-D alone 62.5 mg/l, read-out: % Inhibition of growth by 4,4-D): 98%
- inhibition at 125 µg/mL ([1]; 24 h, 4,4-D alone 125.0 mg/l, read-out: % Inhibition of growth by 4,4-D): 100%
- inhibition at 250 µg/mL ([1]; 24 h, 4,4-D alone 250.0 mg/l, read-out: % Inhibition of growth by 4,4-D): 99%
- inhibition at 500 µg/mL ([1]; 24 h, 4,4-D alone 500.0 mg/l, read-out: % Inhibition of growth by 4,4-D): 100%
- inhibition at 1000 µg/mL ([1]; 24 h, 4,4-D alone 1000.0 mg/l, read-out: % Inhibition of growth by 4,4-D): 100%

Molecule: CCN1CN(CC)CN(CC)C1 [TEHT, 1,3,5-Triethylhexahydro-s-triazine]
- inhibition at 0.19 µg/mL ([1]; 24 h, TEHT alone 0.19 mg/l, read-out: % Inhibition of growth by TEHT): 10%
- inhibition at 0.39 µg/mL ([1]; 24 h, TEHT alone 0.39 mg/l, read-out: % Inhibition of growth by TEHT): 11%
- inhibition at 0.78 µg/mL ([1]; 24 h, TEHT alone 0.78 mg/l, read-out: % Inhibition of growth by TEHT): 10%
- inhibition at 1.56 µg/mL ([1]; 24 h, TEHT alone 1.56 mg/l, read-out: % Inhibition of growth by TEHT): 22%
- inhibition at 3.13 µg/mL ([1]; 24 h, TEHT alone 3.13 mg/l, read-out: % Inhibition of growth by TEHT): 49%
- inhibition at 6.25 µg/mL ([1]; 24 h, TEHT alone 6.25 mg/l, read-out: % Inhibition of growth by TEHT): 82%
- inhibition at 12.5 µg/mL ([1]; 24 h, TEHT alone 12.5 mg/l, read-out: % Inhibition of growth by TEHT): 98%
- inhibition at 25 µg/mL ([1]; 24 h, TEHT alone 25.0 mg/l, read-out: % Inhibition of growth by TEHT): 100%

Molecule: O=[N+]([O-])C(CO)(CO)CO [TN, tris(hydroxymethyl)nitromethane]
- inhibition at 7.81 µg/mL ([1]; 24 h, TN alone 7.81 mg/l, read-out: % Inhibition of growth by TN): 0%
- inhibition at 15.63 µg/mL ([1]; 24 h, TN alone 15.63 mg/l, read-out: % Inhibition of growth by TN): 4%
- inhibition at 31.25 µg/mL ([1]; 24 h, TN alone 31.25 mg/l, read-out: % Inhibition of growth by TN): 0%
- inhibition at 62.5 µg/mL ([1]; 24 h, TN alone 62.5 mg/l, read-out: % Inhibition of growth by TN): 50%
- inhibition at 125 µg/mL ([1]; 24 h, TN alone 125.0 mg/l, read-out: % Inhibition of growth by TN): 100%
- inhibition at 250 µg/mL ([1]; 24 h, TN alone 250.0 mg/l, read-out: % Inhibition of growth by TN): 100%
- inhibition at 500 µg/mL ([1]; 24 h, TN alone 500.0 mg/l, read-out: % Inhibition of growth by TN): 100%
- inhibition at 1000 µg/mL ([1]; 24 h, TN alone 1000.0 mg/l, read-out: % Inhibition of growth by TN): 100%

Molecule: 1-(3-chloroallyl)-3,5,7-triaza-1-azoniaadamantane chloride [CTAC]
- % Inhibition of growth by CTAC ([1]; CTAC Concn. 3.91 mg/l, 24 h): 0%
- % Inhibition of growth by CTAC ([1]; CTAC Concn. 7.81 mg/l, 24 h): 18%
- % Inhibition of growth by CTAC ([1]; CTAC Concn. 15.63 mg/l, 24 h): 20%
- % Inhibition of growth by CTAC ([1]; CTAC Concn. 31.25 mg/l, 24 h): 21%
- % Inhibition of growth by CTAC ([1]; CTAC Concn. 62.5 mg/l, 24 h): 0%
- % Inhibition of growth by CTAC ([1]; CTAC Concn. 125.0 mg/l, 24 h): 100%
- % Inhibition of growth by CTAC ([1]; CTAC Concn. 250.0 mg/l, 24 h): 100%
- % Inhibition of growth by CTAC ([1]; CTAC Concn. 500.0 mg/l, 24 h): 100%

Molecule: CCC12COCN1COC2 [EBO, 7-ethyl bicyclooxazolidine]
- % Inhibition of growth by EBO ([1]; EBO alone 7.81 mg/l, 24 h): 0%
- % Inhibition of growth by EBO ([1]; EBO alone 15.63 mg/l, 24 h): 0%
- % Inhibition of growth by EBO ([1]; EBO alone 31.25 mg/l, 24 h): 0%
- % Inhibition of growth by EBO ([1]; EBO alone 62.5 mg/l, 24 h): 3%
- % Inhibition of growth by EBO ([1]; EBO alone 125.0 mg/l, 24 h): 10%
- % Inhibition of growth by EBO ([1]; EBO alone 250.0 mg/l, 24 h): 71%
- % Inhibition of growth by EBO ([1]; EBO alone 500.0 mg/l, 24 h): 96%
- % Inhibition of growth by EBO ([1]; EBO alone 1000.0 mg/l, 24 h): 100%

Molecule: O=CCCCC=O [Glut, glutaraldehyde]
- MBC (minimum biocide concentration needed to completely kill), biocide alone [2]: 29.6 µg/mL
- concentration needed to provide at least 90% inhibition of growth ([1]; biocide alone, 24 h): 125 mg/L
